Measurements reported in US12171230B2, “Herbicidal compositions” (Bayer Aktiengesellschaft, priority 2018, dated 2024).

How the values were obtained:
Assay type in all cases: in vivo
Chenopodium album = experiment: Post-emergence herbicidal action against Chenopodium album; details: g of a.i./ha: 180, 100, 100 + 180
Procedure: When the observed efficacies exceed the formal sum total of the values of the tests with individual applications, they also exceed the expected value according to Colby, which is calculated using the formula below and is likewise regarded as an indication of synergism (cf. S. R. Colby; in Weeds 15 (1967) p. 20 to 22): E^C=A+B−([…])
Here: • A=efficacy of the active compound (A) in % at an application rate of a g a.i./ha; • B=efficacy of the active compound (B) in % at an application rate of b g a.i./ha; • E^C=expected value of the effect of the combination (A)+(B) in % at the combined application rate a+b g a.i./ha.
Seeds or rhizome pieces of mono- and dicotyledonous weeds are placed in sandy loam in pots, covered with soil and grown in a greenhouse under good growth conditions (temperature, air humidity, water supply). Three weeks after sowing, the test plants were treated at the three-leaf stage with the compositions according to the invention. The compositions according to the invention formulated as spray powders or as emulsion concentrates were sprayed onto the green plant parts in various dosages with an application rate of 300 to 800 l/ha of water (equivalent). After the test plants have been left to stand in the greenhouse under optimal growth conditions for about 3 to 4 weeks, the action of the preparations is scored visually in comparison to untreated controls. The compositions according to the invention also have good post-emergence herbicidal activity against a broad spectrum of economically important gramineous and broadleaf weeds.

Bromus sterilis = experiment: Post-emergence herbicidal action against Bromus sterilis
Method in brief: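 Each treatment was applied at a rate expressed as g of 100% active compound per ha, and the effect was scored a given number of days later (DAT). Reference values for combinations were calculated two ways: E^A, the sum of individual effects, and E^C, Colby's expected value.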

Echinochloa crus-galli = experiment: Post-emergence herbicidal action against Echinochloa crus-galli; details: 21 DAT; 30 g of a.i./ha
Method in brief: (§1)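 Greenhouse pot test: three-leaf-stage plants, three weeks from sowing, sprayed with spray-powder or emulsion-concentrate formulations at several dosages (300 to 800 l/ha water). Efficacy rated visually against untreated plants some 3 to 4 weeks later, with Colby formula giving expected combination effect.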

Abutilon theophrasti = experiment: Post-emergence herbicidal action against Abutilon theophrasti; details: 21 DAT
Galium aparine = experiment: Post-emergence herbicidal action against Galium aparine
Method in brief: as §1

Poa annua = experiment: Post-emergence herbicidal action against Poa annua
Method in brief: as §1

Eleusine indica = experiment: Post-emergence herbicidal action against Eleusine indica; details: (Z3) post-emergence, g of a.i./ha: 270, 90, 15, 5, 5 + 270, 15 + 90
Description: The following abbreviations are used in the description and the tables that follow: • g of a.i./ha=grams of active substance (active ingredient) (=100% active compound) per hectare; • The sum total of the effects of the individual applications is reported under E^A; • expected values according to Colby are each reported under E^C.
The rating period is reported in days after application (DAT).

## O=C(Nc1ccc(F)cc1F)c1cccnc1Oc1cccc(C(F)(F)F)c1 [(B2.18) Diflufenican]
Chenopodium album
  Herbicidal action 27 DAT against Chenopodium album: 20%
Bromus sterilis; (Z61) post-emergence, g of a.i./ha by row: 4, 1, 270, 90, 4 + 270, 1 + 270, 1 + 90, 90 g of a.i./ha
  Herbicidal action 14 DAT against Bromus sterilis: 10%
Bromus sterilis; (Z61) post-emergence, g of a.i./ha by row: 4, 1, 270, 90, 4 + 270, 1 + 270, 1 + 90, 270 g of a.i./ha
  Herbicidal action 14 DAT against Bromus sterilis: 15%
Bromus sterilis; (Z61) post-emergence, g of a.i./ha: 1, 270, 90, 1 + 270, 1 + 90, 90 g of a.i./ha
  Herbicidal action 28 DAT against Bromus sterilis: 15%
Bromus sterilis; (Z61) post-emergence, g of a.i./ha: 1, 270, 90, 1 + 270, 1 + 90, 270 g of a.i./ha
  Herbicidal action 28 DAT against Bromus sterilis: 20%
Bromus sterilis; (Z119) post-emergence, g of a.i./ha: 1, 270, 1 + 270
  Herbicidal action 28 DAT against Bromus sterilis: 0%
Bromus sterilis; (Z119) post-emergence, g of a.i./ha: 1, 270, 90, 1 + 270, 1 + 90
  Herbicidal action 14 DAT against Bromus sterilis: 5%
Bromus sterilis; (Z148) post-emergence, g of a.i./ha: 1, 270, 90, 30, 1 + 270, 1 + 90, 1 + 30
  Herbicidal action 28 DAT against Bromus sterilis: 0%
Bromus sterilis; (Z148) post-emergence, g of a.i./ha: 4, 1, 270, 90, 30, 4 + 270, 4 + 90, 4 + 30, 1 + 30, 30 g of a.i./ha
  Herbicidal action 14 DAT against Bromus sterilis: 0%
Bromus sterilis; (Z148) post-emergence, g of a.i./ha: 4, 1, 270, 90, 30, 4 + 270, 4 + 90, 4 + 30, 1 + 30, 270 g of a.i./ha
  Herbicidal action 14 DAT against Bromus sterilis: 5%
Echinochloa crus-galli
  Herbicidal action against Echinochloa crus-galli: 10%
Abutilon theophrasti; 30 g of a.i./ha
  Herbicidal action against Abutilon theophrasti: 10%
Abutilon theophrasti; 90 g of a.i./ha
  Herbicidal action against Abutilon theophrasti: 10%
Abutilon theophrasti; 270 g of a.i./ha
  Herbicidal action against Abutilon theophrasti: 25%
Galium aparine; 30 g of a.i./ha
  Herbicidal action 28 DAT against Galium aparine: 0%
Galium aparine; 90 g of a.i./ha
  Herbicidal action 28 DAT against Galium aparine: 20%
Galium aparine; (Z119) post-emergence, g of a.i./ha by row: 1, 30, 1 + 30
  Herbicidal action 14 DAT against Galium aparine: 30%
Galium aparine; (Z119) post-emergence, g of a.i./ha: 16, 4, 30, 16 + 30, 4 + 30
  Herbicidal action 28 DAT against Galium aparine: 0%
Poa annua; 30 g of a.i./ha
  Herbicidal action 28 DAT against Poa annua L.: 0%
Poa annua; 90 g of a.i./ha
  Herbicidal action 28 DAT against Poa annua L.: 0%
Poa annua; 270 g of a.i./ha
  Herbicidal action 28 DAT against Poa annua L.: 0%
Poa annua; (Z61) post-emergence, g of a.i./ha: 16, 1, 270, 90, 16 + 270, 16 + 90, 1 + 270, 1 + 90
  Herbicidal action 14 DAT against Poa annua L.: 20%
Poa annua; (Z119) post-emergence, g of a.i./ha: 16, 1, 270, 90, 30, 16 + 270, 16 + 90, 16 + 30, 1 + 270
  Herbicidal action 28 DAT against Poa annua L.: 0%
Eleusine indica; 90 g of a.i./ha
  Herbicidal action 21 DAT against Eleusine indica: 20%
Eleusine indica; 270 g of a.i./ha
  Herbicidal action 21 DAT against Eleusine indica: 30%
